# Results: patent US6844345B2, “Piperazine derivatives” (priority 2001, dated 2005)
# Like-named read-outs stand apart in the source and are kept apart here.
# How the values were obtained:
# [1] = molecular target: T1, 5-HT2C receptor (Homo sapiens, UniProt P28335); assay: Binding to 5-HT2C receptor, [3H]-5-HT radioligand, Method (a); parameters: expressed in transfected cells; host or cells: CHO cell line; conditions: CHO cell line, read-out: Ki (2C)
# T1 sequence (P28335 33-458): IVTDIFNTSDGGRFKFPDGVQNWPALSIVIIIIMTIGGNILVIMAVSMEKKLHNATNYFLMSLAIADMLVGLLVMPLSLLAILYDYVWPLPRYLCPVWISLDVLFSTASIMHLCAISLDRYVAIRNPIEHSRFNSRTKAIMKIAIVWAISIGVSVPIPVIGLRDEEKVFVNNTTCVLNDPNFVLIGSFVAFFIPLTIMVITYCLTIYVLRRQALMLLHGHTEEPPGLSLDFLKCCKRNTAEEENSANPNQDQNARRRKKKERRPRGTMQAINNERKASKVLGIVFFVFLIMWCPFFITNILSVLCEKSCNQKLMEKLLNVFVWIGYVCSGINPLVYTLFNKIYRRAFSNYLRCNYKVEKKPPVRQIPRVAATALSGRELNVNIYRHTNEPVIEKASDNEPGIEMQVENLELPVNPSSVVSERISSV
# Protocol: (§1) The binding of compounds of formula (I) to serotonin receptors was determined in vitro by standard methods. The preparations were investigated in accordance with the assays given hereinafter.
# Method (a): For the binding to the 5-HT2C receptor the 5-HT2C receptors were radiolabeled with [^3H]-5-HT. The affinity of the compounds for 5-HT2C receptors in a CHO cell line was determined according to the procedure of D. Hoyer, G. Engel and H. O. Kalkman, European J. Pharmacol., 1985, 118, 13-23.
# [2] = molecular target: T2, 5-HT2A receptor (Homo sapiens, UniProt P28223); assay: Functional activity, FLIPR calcium assay in CHO cells expressing human 5-HT2A; type: cell-based; parameters: expressed in transfected cells; host or cells: CHO cells; conditions: for h5-HT2A Relative Efficacy: maximum fluorescent signal relative to 10 μM 5-HT (defined as 100%)
# T2 sequence (P28223 whole entry): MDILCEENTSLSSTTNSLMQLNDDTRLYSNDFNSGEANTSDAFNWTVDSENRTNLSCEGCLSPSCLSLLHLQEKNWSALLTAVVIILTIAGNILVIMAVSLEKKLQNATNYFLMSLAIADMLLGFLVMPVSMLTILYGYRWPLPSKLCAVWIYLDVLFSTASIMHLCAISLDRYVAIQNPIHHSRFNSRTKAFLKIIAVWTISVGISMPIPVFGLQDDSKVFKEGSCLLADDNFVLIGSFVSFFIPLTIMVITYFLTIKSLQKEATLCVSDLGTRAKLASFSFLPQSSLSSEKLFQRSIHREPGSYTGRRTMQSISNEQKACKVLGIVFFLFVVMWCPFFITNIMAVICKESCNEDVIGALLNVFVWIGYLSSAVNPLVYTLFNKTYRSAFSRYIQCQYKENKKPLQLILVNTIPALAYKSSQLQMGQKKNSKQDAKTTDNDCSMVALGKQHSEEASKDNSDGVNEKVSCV
# Protocol: (§2) The functional activity of compounds of formula (I) was assayed using a Fluorimetric Imaging Plate reader (FLIPR). CHO cells expressing the human 5-HT2C or human 5-HT2A receptors were counted and plated into standard 96 well microtitre plates on the day before testing to give a confluent monolayer. The cells were then dye loaded with the calcium sensitive dye, Fluo-3-AM. Unincorporated dye was removed using an automated cell washer to leave a total volume of 100 μL/well of assay buffer (Hanks balanced salt solution containing 20 mM Hepes and 2.5 mM probenecid). The drug (dissolved in 50 μL of the assay buffer) was added at a rate of 70 μL/sec to each well of the FLIPR 96 well plate during fluorescence measurements. The measurements were taken at 1 sec intervals and the maximum fluorescent signal was measured (approx. 10-15 secs after drug addition) and compared with the response produced by 10 μM 5-HT (defined as 100%) to which it was expressed as a percentage response (relative efficacy). Dose response curves were constructed using Graphpad Prism (Graph Software Inc.).
# [3] = molecular target: T2, 5-HT2A receptor; assay: Binding to 5-HT2A receptor, [125I]-DOI radioligand, Method (c); parameters: expressed in transfected cells; host or cells: CHO cell line; conditions: CHO cell line, read-out: Ki (2A)
# Protocol: as §1
# Method (c): For the binding to the 5-HT2A receptor the 5-HT2A receptors were radiolabeled with [^125I]-DOI. The affinity of the compounds for 5-HT2A receptors in a CHO cell line was determined according to the procedure of D. J. McKenna and S. J. Peroutka, J. Neurosci., 1989, 9, 3482-90.
# [4] = molecular target: T1, 5-HT2C receptor; assay: Functional activity, FLIPR calcium assay in CHO cells expressing human 5-HT2C; type: cell-based; parameters: expressed in transfected cells; host or cells: CHO cells; conditions: for h5-HT2c Relative Efficacy: maximum fluorescent signal relative to 10 μM 5-HT (defined as 100%)
# Protocol: as §2
# [5] = molecular target: T3, human 5-HT2B receptors (Homo sapiens, UniProt P41595); assay: Binding to 5-HT2B receptor, [3H]-5-HT radioligand, Method (b); conditions: human receptor in CHO cell line, read-out: Ki (2B)
# T3 construct: expressed in transfected cells; host or cells: CHO cell line
# T3 sequence (P41595 whole entry): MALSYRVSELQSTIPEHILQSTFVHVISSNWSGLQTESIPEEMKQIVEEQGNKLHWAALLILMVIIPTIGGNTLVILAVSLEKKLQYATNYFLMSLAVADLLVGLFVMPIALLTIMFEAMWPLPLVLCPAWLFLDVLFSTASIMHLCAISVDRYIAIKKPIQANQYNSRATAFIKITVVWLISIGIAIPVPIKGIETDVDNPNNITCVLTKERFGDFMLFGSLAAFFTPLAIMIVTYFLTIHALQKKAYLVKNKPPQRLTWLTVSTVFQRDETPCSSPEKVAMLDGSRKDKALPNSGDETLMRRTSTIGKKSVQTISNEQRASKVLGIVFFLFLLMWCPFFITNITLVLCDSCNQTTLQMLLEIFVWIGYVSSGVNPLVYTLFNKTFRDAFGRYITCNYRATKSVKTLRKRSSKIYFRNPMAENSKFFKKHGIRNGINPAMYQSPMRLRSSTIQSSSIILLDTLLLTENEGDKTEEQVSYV
# Protocol: as §1
# Method (b): For the binding to the 5-HT2B receptor the 5-HT2B receptors were radiolabeled with [^3H]-5-HT. The affinity of the compounds for human 5-HT2B receptors in a CHO cell line was determined according to the procedure of K. Schmuck, C. Ullmer, P. Engels and H. Lubbert, FEBS Lett., 1994, 342, 85-90.
# [6] = FLIPR, CHO cells, Fluo-3-AM, read-out: h5-HT2A EC50
# [7] = FLIPR, CHO cells, Fluo-3-AM, read-out: h5-HT2c EC50
melting point,Compound,"EC50 [2, 6] [nM]",h5-HT2A Relative Efficacy [2] [%],"EC50 [4, 7] [nM]",h5-HT2c Relative Efficacy [4] [%],further results
241 °C (dec.),Cc1cc2c(cc1Br)cc1n2[C@H](C)CNC1.Cl,,,,,
245 °C (dec.),Cc1ccc2cc3n(c2c1)[C@H](C)CNC3.Cl,,,,,
123 to 125 °C,"C[C@@H]1CNCc2cc3ccc(C(F)(F)F)cc3n21 [Example 2, (R)-4-Methyl-7-trifluoromethyl-1,2,3,4-tetrahydro-pyrazino[1,2-a]indole]",,,,,
58 to 60 °C,"C[C@@H]1CNCc2cc3cccc(OC(F)(F)F)c3n21 [Example 17, (R)-4-Methyl-6-trifluoromethoxy-1,2,3,4-tetrahydro-pyrazino[1,2-a]indole]",,,,,

# More lines, now with the values behind:
Compound,melting point,"EC50 [2, 6] [nM]",h5-HT2A Relative Efficacy [2] [%],"EC50 [4, 7] [nM]",h5-HT2c Relative Efficacy [4] [%],further results
C[C@@H]1CNCc2cc3c(Cl)cccc3n21.Cl,234 to 237 °C (dec.),,,,,
C[C@@H]1CNCc2cc3cc(Br)c(F)cc3n21.Cl,232 °C,,,,,
"CCc1cccc2cc3n(c12)[C@H](C)CNC3 [Example 1, (R)-6-Ethyl-4-methyl-1,2,3,4-tetrahydro-pyrazino[1,2-a]indole]",,640,23,22,83,Ki [1]: 5 nM; Ki [3]: 205 nM; Ki [5]: 86 nM
"Cc1c2n(c3c(C)c(Cl)ccc13)[C@H](C)CNC2.O=C(O)C(=O)O [Example 14, (R)-7-Chloro-4,6,10-trimethyl-1,2,3,4-tetrahydro-pyrazino[1,2-a]indole oxalate]",,536,34,0.4,88,
"C[C@@H]1CNCc2cc3ccc(Cl)cc3n21 [Example 20, (R)-7-Chloro-4-methyl-1,2,3,4-tetrahydro-pyrazino[1,2-a]indole]",,163,49,7,91,Ki [1]: 2.8 nM; Ki [3]: 23 nM; Ki [5]: 44 nM
"Cc1ccc(C)c2c1cc1n2[C@H](C)CNC1 [Example 21, (R)-4,6,9-Trimethyl-1,2,3,4-tetrahydro-pyrazino[1,2-a]indole]",,,76,,80,EC50 [2]: 121 nM; EC50 [4]: 5 nM
